The values below come from article PMC9038752, “Molecular mechanisms of bifunctional vitamin D receptor agonist-histone deacetylase inhibitor hybrid molecules in triple-negative breast cancer” (Scientific Reports, 2022).

A short description of data set [1]: Aqueous solubility after sonication. It counts as physicochemical. To be noted: water; after sonication for 30 min. From the text:
The synthesis of the B-ring series mirrored that of the A-ring series producing B-ring hybrids AM-191 (n = 1, 27a), AM-192 (n = 3, 27b), and AM-193 (n = 5, 27c) in 9 steps (Fig. 3).

The test system of data set [2] is 4T1 mouse model of triple negative breast cancer. On the set-up: method as in PMID 28847749. To be noted: aggressive 4T1 mouse model of TNBC; cited from earlier work.
Data set [3] has as its system 60 human cell line panel of the National Cancer Institute. On the set-up: method as in PMID 26048026. The settings on record: cell lines from a broad range of tumors, including TNBCs; cited from earlier work.
Data set [4] addresses T1, purified HDAC6 (Homo sapiens, UniProt Q9UBN7).
T1 construct: purchased Cayman Chemical
T1 sequence (Q9UBN7 1-1215): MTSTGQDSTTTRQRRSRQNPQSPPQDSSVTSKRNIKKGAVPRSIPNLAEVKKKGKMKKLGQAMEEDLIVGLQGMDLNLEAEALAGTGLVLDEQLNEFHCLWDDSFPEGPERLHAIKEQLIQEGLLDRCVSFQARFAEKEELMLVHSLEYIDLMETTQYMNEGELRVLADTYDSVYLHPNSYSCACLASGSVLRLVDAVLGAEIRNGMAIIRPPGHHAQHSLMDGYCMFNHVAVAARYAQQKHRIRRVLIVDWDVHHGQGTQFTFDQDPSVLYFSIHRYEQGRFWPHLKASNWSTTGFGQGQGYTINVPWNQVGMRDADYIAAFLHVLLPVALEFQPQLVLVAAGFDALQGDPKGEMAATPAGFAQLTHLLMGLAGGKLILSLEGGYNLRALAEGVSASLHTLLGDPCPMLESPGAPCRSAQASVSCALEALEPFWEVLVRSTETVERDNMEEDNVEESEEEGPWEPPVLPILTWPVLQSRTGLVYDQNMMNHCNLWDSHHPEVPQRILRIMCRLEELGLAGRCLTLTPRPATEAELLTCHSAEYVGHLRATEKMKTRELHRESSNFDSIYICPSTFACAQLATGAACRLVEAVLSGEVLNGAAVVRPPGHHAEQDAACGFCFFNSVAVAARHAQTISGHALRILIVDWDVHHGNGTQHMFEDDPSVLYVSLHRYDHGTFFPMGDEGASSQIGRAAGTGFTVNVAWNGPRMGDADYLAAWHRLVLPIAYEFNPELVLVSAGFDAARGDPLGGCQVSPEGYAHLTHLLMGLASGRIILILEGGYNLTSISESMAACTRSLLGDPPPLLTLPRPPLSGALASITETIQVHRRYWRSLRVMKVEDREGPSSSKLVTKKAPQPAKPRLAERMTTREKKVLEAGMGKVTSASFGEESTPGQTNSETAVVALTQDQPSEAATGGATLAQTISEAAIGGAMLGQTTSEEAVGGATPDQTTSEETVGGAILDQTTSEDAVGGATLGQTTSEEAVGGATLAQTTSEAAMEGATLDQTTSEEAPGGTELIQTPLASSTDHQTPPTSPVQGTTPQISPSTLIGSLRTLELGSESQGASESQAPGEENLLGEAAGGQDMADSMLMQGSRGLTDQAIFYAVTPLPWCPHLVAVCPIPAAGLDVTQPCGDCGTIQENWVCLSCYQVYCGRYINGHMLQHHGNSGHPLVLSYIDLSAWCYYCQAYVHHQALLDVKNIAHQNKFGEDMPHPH
Briefly: Fluorogenic HDAC inhibition assay, HDAC6. The settings on record: purified HDAC6, fluorometric substrate. It counts as biochemical. As for the experimental part:
(§1) The hybrids were assessed to determine their HDACi and VDR agonist activity as well as their antiproliferative properties relative to DK-406. HDACi activity was assessed in vitro using an acetylated lysine substrate that releases a fluorescent reporter upon HDACi deacetylation and subsequent trypsin digestion. Increasing sidechain length of pyrimidine hybrids enhanced the potency of HDAC6 inhibition, with several compounds inhibiting HDAC6 with a sub-micromolar IC50, similar to that of DK-406 (Fig. 4a). […] Next, we analyzed the effects of compounds on levels of H3K9 and H3K27 acetylation in 4TO7 cells, which are controlled by class I HDACs[29],[30]. […] We also tested the capacity of analogues to induce tubulin acetylation, controlled by class II enzyme HDAC6[32], in 4TO7 cells. Based on their relative efficacy in cytotoxicity assays (see below, Fig. 5c,d), we used 10^–5 M DK-406 and 10^–6 M AM-193 for these studies.
(§2) Figure 4 (a) Results of in vitro assays for inhibition of purified HDAC2 and HDAC6 by DK-406 and heterocyclic hybrids as measured by inhibition of deacetylation of a fluorometric substrate (see Methods for details). (b–d) Left: Western blotting analysis of histone 3 lysine 9 (H3K9; b), H3K27 (c), or acetylated tubulin (d), levels in 4TO7 cells treated with ligands for 6 h. Representative western-blots are shown from at least 3 biological replicates. Right: Graphs representing the average of the replicates, bars are mean ± SD. Each condition was compared to control. *: p ≤ 0.05, **: p ≤ 0.01, ***: p ≤ 0.001, ****: p ≤ 0.0001, ns: not significant. TEXT PRINTED IN THE PICTURE: (a) DK-406: HDAC6 IC50 (μM): 0.6; HDAC2 IC50 (μM): 0.5 | (a) AM-155: HDAC6 IC50 (μM): 2.8; HDAC2 IC50 (μM): 1.7 | (a) AM-171: HDAC6 IC50 (μM): 0.5; HDAC2 IC50 (μM): 9.6 | (a) AM-172: HDAC6 IC50 (μM): 0.3; HDAC2 IC50 (μM): 7.7 | (a) AM-191: HDAC6 IC50 (μM): 1.9; HDAC2 IC50 (μM): 8.1 | (a) AM-192: HDAC6 IC50 (μM): 0.5; HDAC2 IC50 (μM): 6.5 | (a) AM-193: HDAC6 IC50 (μM): 0.3; HDAC2 IC50 (μM): 7.2
(§3) Purified HDAC2 and HDAC6 were purchased from Cayman Chemical. Boc-Lys(Ac)-7-amino-4-methylcoumarin (BocLys(Ac)-AMC) was used as substrate for the HDAC assays. Substrate solution was prepared as follow: Boc(Lys-Ac)-AMC was dissolved in DMSO and diluted with HDAC buffer (15 mM tris–HCl [pH 8.1], 250 μM EDTA, 250 mM NaCl, 10% glycerol) to give 1 mM solutions containing 1.7% DMSO. Trypsin was used to stop the reaction, releasing free AMC. The trypsin solution was prepared as follow: trypsin was dissolved in HDAC buffer to give a concentration of 10 mg/mL. Release of AMC was monitored by measuring the fluorescence at 460 nm (lex = 390 nm) with a microplate reader (SpectraMax Gemini from Molecular Devices) at 37 °C. The AMC signals were recorded against a blank with buffer, substrate and trypsin but without the enzyme. All experiments were carried out at least in triplicate.
(§4) For HDAC inhibition assays, inhibitor diluted in 50 μL of HDAC buffer was mixed with 10 μL of diluted enzyme solution in HDAC buffer at room temperature. The HDAC reaction was started by adding 40 μL of substrate solution in HDAC buffer followed by 60 min of incubation with stirring at 37 °C. The reaction was stopped by adding 100 μL of trypsin solution. After a 30 min incubation with stirring at 37 °C, the release of AMC was monitored by measuring the fluorescence.

Data set [5] deals with T2, purified HDAC2 (Homo sapiens, UniProt Q92769).
T2 construct: purchased Cayman Chemical
Briefly: Fluorogenic HDAC inhibition assay, HDAC2. It counts as biochemical. To be noted: purified HDAC2, fluorometric substrate. As for the experimental part:
as §1, §2, §3, §4

The test system of data set [6] is 4TO7 cells. Briefly: RNAseq gene expression profiling in 4TO7 cells. Format: cell-based, mouse. To be noted: relative to control. As for the experimental part:
Cells were treated for 6 h to focus more on genes directly regulated by the VDR, or for 24 or 48 h to gain insight into longer-term effects on gene expression.
McGill Genome Centre performed a quality control before sequencing in paired-end at 50 M reads by Illumina NovaSeq 6000 S4 PE100. Sets of genes regulated in the different conditions were sent to us and downstream analysis were performed.
Table S1 and Table S2 : See Excel files with RNAseq results and analysis
48 hours prior to RNA extraction. Samples were prepared in triplicate and run on Illumina NovaSeq 6000 S4
PE100. For assessing differential gene expression for RNAseq data, the LIMMA package inR was used.
RNAseq results and statistical analyses from D, S, S+D, DK-406, and AM-193 conditions measured relative to
AM-193 for 6 or 24 hours prior to RNA extraction . Samples were prepared in triplicate and run on Illumina
NovaSeq 6000 S4 PE100. For assessing differential gene expression for RNAseq data, the LIMMA package in R was […]

The mark [7] stands for this setting: 6 h, RNAseq Supplemental table 1.
[8] abbreviates: 6 h, RNAseq Supplemental table 2, 1 µM AM-193, 10 µM DK-406, 100 nM 1,25D and SAHA.
Setting [9] is: 24 h, RNAseq Supplemental table 2, 1 µM AM-193, 10 µM DK-406, 100 nM 1,25D and SAHA.
Where [10] appears, read: 48 h, RNAseq Supplemental table 1.

Converted amounts (≈) assume the structure as drawn.

T2 sequence (Q92769 whole entry): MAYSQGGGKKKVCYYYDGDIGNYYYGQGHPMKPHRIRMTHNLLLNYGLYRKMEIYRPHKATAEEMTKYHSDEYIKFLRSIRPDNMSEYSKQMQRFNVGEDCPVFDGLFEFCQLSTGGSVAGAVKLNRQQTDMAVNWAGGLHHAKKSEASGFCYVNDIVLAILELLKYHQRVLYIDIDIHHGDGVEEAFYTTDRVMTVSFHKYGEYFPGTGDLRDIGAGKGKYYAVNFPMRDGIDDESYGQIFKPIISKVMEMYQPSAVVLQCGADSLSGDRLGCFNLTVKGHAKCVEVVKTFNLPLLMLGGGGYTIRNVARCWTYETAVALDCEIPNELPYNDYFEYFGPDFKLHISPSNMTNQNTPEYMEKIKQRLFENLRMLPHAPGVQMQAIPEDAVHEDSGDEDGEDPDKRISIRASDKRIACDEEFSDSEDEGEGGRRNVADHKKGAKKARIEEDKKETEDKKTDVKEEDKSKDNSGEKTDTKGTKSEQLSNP

As usually defined, the solubility is the concentration that dissolves in the medium under given conditions. Higher therefore signals a readily soluble substance. For `CCC(CC)(c1ccc(OCCCCCC(=O)NO)cc1)c1ccc(OCC(O)C(C)(C)C)c(C)c1` (stereo not shown) [DK-367], in data set [1], the solubility at 30 min is 1.91 µg/mL (≈ 3.82 µM). Moreover, in data set [2], the “tumor growth and metastasis” value was “reduced tumor growth and metastasis”. In addition, in data set [3], the antiproliferative activities result was “displayed antiproliferative activities”.
The term IC50 denotes the concentration that gives 50% inhibition. Take `CCC(CC)(c1ccc(OCCCC(=O)NO)cc1)c1ccc(OCC(O)C(C)(C)C)c(C)n1` (stereo not shown) [AM-192]: the IC50 turned out to be 0.5 µM in data set [4] and 6.5 µM in data set [5].
With `C=C1/C(=C\C=C2/CCC[C@]3(C)[C@@H]([C@H](C)CCCC(C)(C)O)CC[C@@H]23)C[C@@H](O)C[C@@H]1O` [1,25D, 1α,25-Dihydroxyvitamin D3, reference compound], in data set [6] (setting [7]), the “Aaas 6h Log Fold” value is reported as -1.012, the “Aacs 6h Log Fold” value amounted to 1.070, the “Aaed1 6h Log Fold” value is given as -1.076 and the “Aagab 6h Log Fold” value is 1.036. In addition, in data set [6] (setting [7]), the “Aak1 6h Log Fold” value is given as -1.011. For the same compound, in data set [6] (setting [8]), the “Aaas 6h Log Fold” value was -0.038, the “Aacs 6h Log Fold” value turned out to be 0.025, the “Aagab 6h Log Fold” value was 0.115 and the “Aak1 6h Log Fold” value was 0.014. For the same compound, the “Aamdc 6h Log Fold” value in data set [6] (setting [8]) is recorded as -0.075. Further, in data set [6] (setting [9]), the “Aaas 24h Log Fold” value is recorded as -0.054, the “Aacs 24h Log Fold” value stood at 0.127, the “Aagab 24h Log Fold” value is on record as 0.138 and the “Aak1 24h Log Fold” value is recorded as 0.00666. Moreover, the “Aamdc 24h Log Fold” value in data set [6] (setting [9]) is -0.360. In addition, in data set [6] (setting [10]), the “Aaas 48h Log Fold” value is on record as -1.436, the “Aacs 48h Log Fold” value was determined as 1.516, the “Aaed1 48h Log Fold” value is reported as -1.677 and the “Aagab 48h Log Fold” value was found to be 1.592. Besides, the “Aak1 48h Log Fold” value in data set [6] (setting [10]) is recorded as 1.091. In addition, in data set [2], the “tumor growth and metastasis” value was “inactive alone or in combination”.
Consider `O=C(CCCCCCC(=O)Nc1ccccc1)NO` [SAHA, Suberoylanilide hydroxamic acid, reference compound], for which the “tumor growth and metastasis” value in data set [2] was “inactive alone or in combination”.
As to `CCC(CC)(c1ccc(OCC(=O)NO)cc1)c1ccc(OCC(O)C(C)(C)C)c(C)n1` (stereo not shown) [AM-191], the IC50 is 1.9 µM in data set [4] and 8.1 µM in data set [5].
In the case of `CCC(CC)(c1ccc(OCC(O)C(C)(C)C)c(C)c1)c1ccc(OCCCCCC(=O)NO)cn1` (stereo not shown) [AM-172], the IC50 in data set [4] is 0.3 µM; in data set [5], 7.7 µM.
